In patent publication US20240316078A1, “Treatment of Neuropathic Sensitization Disorders” (IVIEW Therapeutics, Inc., priority 2021, published 2024):
Values joined by “and” are separate entries in the source; they are usually repeats but may differ in a detail not shown here. Equal entries are not always repeated.

Tests used:
[1] = tested on: patients with DE-associated NOP; test: Ocular Pain Assessment Survey (OPAS) in pilot study of topical cryosim-3; format: in vivo, human; conditions: C3 2 mg/mL eyelid wipe 4 times/day, mean ± SD, 15 patients; for OPAS Tearing (0-1): baseline 0.36 ± 0.29; for OPAS Redness (0-1): baseline 0.41 ± 0.32; for OPAS Chemical stimuli (0-1): baseline 0.47 ± 0.35; for OPAS Burning sensation (0-1): baseline 0.57 ± 0.37; for OPAS Mechanical stimuli (0-1): baseline 0.63 ± 0.29; for OPAS Sensitivity to light (0-1): baseline 0.76 ± 0.24; for OPAS Aggravating factors (total 0-2): baseline 1.11 ± 0.49; for OPAS Associated factors (total 0-4): baseline 2.09 ± 0.76; for OPAS General activity (walking, etc.) (0-10): baseline 4.00 ± 3.18; for OPAS Sleep (0-10): baseline 4.27 ± 3.81; for OPAS Enjoying life/relations with other people (0-10): baseline 5.07 ± 2.84; for OPAS Mood (0-10): baseline 5.40 ± 2.77; for OPAS Driving and/or watching TV (0-10): baseline 6.80 ± 2.31; for OPAS Non-eye pain (0-20): baseline 7.67 ± 6.22; for OPAS Reading and/or computer use (0-10): baseline 7.79 ± 1.76; for OPAS Eye pain intensity (0-60): baseline 30.60 ± 12.84; for OPAS Quality of life (total 0-60): baseline 33.53 ± 14.24
Method: (§1) This prospective non-randomized pilot study was conducted in accordance with the tenets of the Declaration of Helsinki. Ethical approval was obtained from the Chonnam National University Hospital Institutional Review Board (CNUH-2018-274). Informed consent was obtained from all included patients. The sample size was calculated using the G*Power software (version 3.1.9.4; Heinrich-Heine University, Germany) with a level of α=0.05 and a power of 95% to detect a 2-point difference in pain scales. Accordingly, a total sample size of 13 patients was found sufficient.
(§2) Patients with DE accompanied by NOP features, who underwent evaluation between January and December in 2018, were enrolled. DE was diagnosed based on OSDI score ≥13 and tear break-up time (TBUT) ≤7 s. The inclusion criteria were as follows: (1) chronic ocular pain which was unresponsive to conventional topical agents (i.e. lubricants, anti-inflammatories, secretagogues, etc.) for >3 months; (2) discordance between the painful DE symptoms and signs accompanying with specific descriptors, including burning or stinging; and (3) a Wong-Baker FACES Pain Rating Scale (WBFPS) score […].
(§3) The patients were treated with add-on C3 while undergoing conventional topical treatment. C3 samples (2 mg/mL) were diluted in purified water, soaked in gauze, and packaged using automated equipment. The patients applied topical C3 by wiping the gauze on the closed eyelid margin, 4 times/day for 1 month (FIG. 1).
The WBFPS was chosen to screen the pain severity in the patients with DE. The patients chose the face that best depicted the pain they were experiencing. At baseline, 1 week, and 1 month after treatment, the patients also completed the OPAS which is a validated questionnaire for neuropathic pain as previously described. The questions were divided into sections for analysis: questions 4-9, pertained to eye pain intensity (0 to 60); questions 10-11, pertained to non-eye pain (0 to 20); questions 13-19 (0-10, total score 0 to 60), assessed the QoL (reading and/or computer use, driving and/or watching TV, general activity, mood, sleep, and enjoying life/relations with other people); questions 20-21 (each score 0-1, total score 0-2), assessed aggravating factors (mechanical and chemical stimuli); and questions 22-25 (each score 0-1, total score 0-4), assessed associated factors (redness; burning; sensitivity to light; and tearing). The section on symptomatic relief of the OPAS was excluded, and only questions 4-25 were analyzed. The questions were divided into 5 sections as follows: eye pain intensity, non-eye pain, QoL, aggravating factors, and associated factors.
(§4) Statistical analyses were conducted using PASW Statistics for Windows, Version 18.0 (SPSS Inc., Chicago, IL, USA). The normality of distribution was assessed using the Shapiro-Wilk test. The Wilcoxon signed-rank test and repeated-measures analysis of variance with Bonferroni's post-hoc test were used for comparing parameters before and after treatment. A P<0.05 was considered statistically significant.

[2] = tested on: patients with mild DE; conditions: cited from earlier work
[3] = tested on: patients with DE accompanying NOP features; test: Pilot study: discontinuation, safety and onset of effect; format: in vivo, human
Method: as §1, §3
This study enrolled 20 patients with DE accompanying NOP features. Five patients (25.0%) discontinued the treatment because of drug ineffectiveness or intolerance. The remaining 15 patients (75.0%) were included in the analysis. Their mean age was 59.5±13.0 years, and nine patients (60.0%) were women.

[4] = tested on: patients with DE-associated NOP; test: Clinical dry eye parameters (OSDI, TBUT, Schirmer test, corneal staining) in pilot study; format: in vivo, human; conditions: C3 2 mg/mL eyelid wipe 4 times/day, 1-month, mean ± SD
Excerpt: as §2, §3
The OSDI questionnaire which ranged from 0 to 100 was used to quantify the vision-related QoL. TBUT (tear breakup time), the time interval between the last complete blink and the first appearance of disruption of the tear film, was measured thrice and the mean value was used for analysis. Corneal staining scores were assessed using the area-density index, by multiplying the area and density score. The Schirmer test score represented the length of wetting, and was measured using a calibrated sterile strip placed at the lateral canthus for 5 min under topical anesthesia (0.5% proparacaine). Only the score of the right eye was assessed.
as §4

[5] = tested on: patients with DE-associated NOP; test: Wong-Baker FACES Pain Rating Scale (WBFPS) in enrolled patients; format: in vivo, human; conditions: individual patients No. 1-15
Excerpt: as §2
The patients were treated with add-on C3 while undergoing conventional topical treatment. […]
The WBFPS was chosen to screen the pain severity in the patients with DE. […] The questions were divided into sections for analysis: questions 4-9, pertained to eye pain intensity (0 to 60); questions 10-11, pertained to non-eye pain (0 to 20); questions 13-19 (0-10, total score 0 to 60), assessed the QoL (reading and/or computer use, driving and/or watching TV, general activity, mood, sleep, and enjoying life/relations with other people); questions 20-21 (each score 0-1, total score 0-2), assessed aggravating factors (mechanical and chemical stimuli); and questions 22-25 (each score 0-1, total score 0-4), assessed associated factors (redness; burning; sensitivity to light; and tearing). […]

[6] = topical C3 in DE, previous study

CCCCCCCCCP(=O)(C(C)C)C(C)C [cryosim-3, 1-[Diisopropyl-phosphinoyl]-nonane]
OPAS Tearing (0-1) ([1]; 1-month): 0.21 ± 0.27 | OPAS Redness (0-1) ([1]; 1-month): 0.39 ± 0.30 | OPAS Chemical stimuli (0-1) ([1]; 1-month): 0.41 ± 0.32 | OPAS Burning sensation (0-1) ([1]; 1-month): 0.29 ± 0.29 | OPAS Mechanical stimuli (0-1) ([1]; 1-month): 0.47 ± 0.26 | OPAS Sensitivity to light (0-1) ([1]; 1-month): 0.59 ± 0.28 | OPAS Aggravating factors (total 0-2) ([1]; 1-month): 0.88 ± 0.57 | OPAS Associated factors (total 0-4) ([1]; 1-month): 1.58 ± 0.93 | OPAS General activity (walking, etc.) (0-10) ([1]; 1-month): 3.20 ± 2.86 | OPAS Sleep (0-10) ([1]; 1-month): 2.73 ± 3.81 | OPAS Enjoying life/relations with other people (0-10) ([1]; 1-month): 4.27 ± 3.03 | OPAS Mood (0-10) ([1]; 1-month): 4.40 ± 2.47 | OPAS Driving and/or watching TV (0-10) ([1]; 1-month): 5.60 ± 2.90 | OPAS Non-eye pain (0-20) ([1]; 1-month): 5.47 ± 5.62 | OPAS Reading and/or computer use (0-10) ([1]; 1-month): 6.93 ± 2.59 | OPAS Eye pain intensity (0-60) ([1]; 1-month): 21.53 ± 10.84 | OPAS Quality of life (total 0-60) ([1]; 1-month): 27.17 ± 16.06 | OPAS Tearing (0-1) ([1]; 1-week): 0.17 ± 0.18 | OPAS Redness (0-1) ([1]; 1-week): 0.41 ± 0.30 | OPAS Chemical stimuli (0-1) ([1]; 1-week): 0.41 ± 0.35 | OPAS Burning sensation (0-1) ([1]; 1-week): 0.40 ± 0.33 | OPAS Mechanical stimuli (0-1) ([1]; 1-week): 0.47 ± 0.25 | OPAS Sensitivity to light (0-1) ([1]; 1-week): 0.57 ± 0.26 | OPAS Aggravating factors (total 0-2) ([1]; 1-week): 0.87 ± 0.56 | OPAS Associated factors (total 0-4) ([1]; 1-week): 1.55 ± 0.85 | OPAS General activity (walking, etc.) (0-10) ([1]; 1-week): 3.27 ± 2.71 | OPAS Sleep (0-10) ([1]; 1-week): 2.93 ± 3.67 | OPAS Enjoying life/relations with other people (0-10) ([1]; 1-week): 4.33 ± 2.97 | OPAS Mood (0-10) ([1]; 1-week): 4.53 ± 2.50 | OPAS Driving and/or watching TV (0-10) ([1]; 1-week): 5.27 ± 2.52 | OPAS Non-eye pain (0-20) ([1]; 1-week): 6.73 ± 6.18 | OPAS Reading and/or computer use (0-10) ([1]; 1-week): 7.14 ± 2.48 | OPAS Eye pain intensity (0-60) ([1]; 1-week): 26.47 ± 11.45 | OPAS Quality of life (total 0-60) ([1]; 1-week): 27.60 ± 15.49 | effect on basal tear secretion [2, 6]: increasing basal tear secretion | effect on ocular discomfort [2, 6]: alleviating ocular discomfort without any complications | duration of painless cooling sensation after wiping ([2]; wiping of C3): approximately 40 minutes | patients who discontinued the treatment because of drug ineffectiveness or intolerance ([3]; five of 20 enrolled patients): 25.0% | time to improvement of ocular pain after C3 treatment ([3]; patients unresponsive to conventional treatment (122.7 days)): ≤ 1 week | safety and effectiveness of topical application to the eyelid in relieving NOP ([3]; patients with DE): safe and effective | Schirmer test score ([4]; 5 min under topical anesthesia, baseline 7.07 ± 2.76): 8.47 ± 2.80 mm | Corneal staining score (0-9) ([4]; baseline 0.60 ± 0.91): 0.13 ± 0.35 | Tear break-up time ([4]; baseline 4.13 ± 0.83): 4.00 ± 0.85 s | Ocular surface disease index ([4]; scale 0 to 100, baseline 57.5 ± 13.8): 40.2 ± 12.6 | WBFPS score ([5]; 1 month of add-on C3 2 mg/mL eyelid wipe 4 times/day): 2 and 5 (4×) and 6 (2×) and 3 and 4 (3×) and 1 (3×) and 7 | WBFPS score ([5]; 1 week of add-on C3 2 mg/mL eyelid wipe 4 times/day): 1 (4×) and 7 (3×) and 6 (5×) and 3 and 5 (2×)
